From ChEMBL document CHEMBL1201862, “PubChem BioAssay data set” (2004)
Counter-ions that a name gives are not always drawn. Calls of active or inactive are those of the source.

Assays:
[1] = target: T1, Heat shock factor protein 1 (Mus musculus, UniProt P38532); assay: HSF1 potentiators in luciferase reporter cells, confirmation, cell-based, NIH3T3, luminescence, dose retest (AID 435004); type: functional;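 note: stress induced by proteasome inhibitor MG132 added 30 min after compound; luciferase reporter driven by HSF1 response element in NIH3T3 cells; actives raise luminescence as potentiators of the MG132 stress response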
T1 sequence (P38532 whole entry): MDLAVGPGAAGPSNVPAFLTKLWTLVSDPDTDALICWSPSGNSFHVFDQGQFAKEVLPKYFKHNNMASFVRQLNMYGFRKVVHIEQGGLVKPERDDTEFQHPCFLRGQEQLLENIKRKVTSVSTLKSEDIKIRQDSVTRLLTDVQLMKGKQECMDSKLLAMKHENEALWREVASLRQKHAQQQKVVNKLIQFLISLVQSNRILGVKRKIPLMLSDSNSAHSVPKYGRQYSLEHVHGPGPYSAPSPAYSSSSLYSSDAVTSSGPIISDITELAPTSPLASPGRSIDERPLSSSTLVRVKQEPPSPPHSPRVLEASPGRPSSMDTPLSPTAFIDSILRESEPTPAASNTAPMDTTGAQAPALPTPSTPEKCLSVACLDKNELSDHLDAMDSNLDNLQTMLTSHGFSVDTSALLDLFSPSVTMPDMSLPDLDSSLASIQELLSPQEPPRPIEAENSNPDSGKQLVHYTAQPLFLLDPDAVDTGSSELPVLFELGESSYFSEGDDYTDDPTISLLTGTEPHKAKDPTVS

cells [2] = type: functional, cell-based
cells [3] = type: functional, cell-based; remark: listed apart in the source
[4] = growth suppression of PTEN-null colon cells, dose response, cell-based, HCT116 PTEN knockout (AID 1047); type: functional;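 note: HCT116 colon tumor cells with PTEN knocked out; cells exposed to compound for 60 hours before readout; potency for loss of cell viability measured by luminescence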
[5] = growth suppression of beta-catenin-knockout colon cells, dose response, cell-based, HCT116, human colon tumor (AID 1045); type: functional;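 note: HCT116 colon tumor cells with beta catenin knocked out; cells exposed to compound for 60 hours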
[6] = target: T1, Heat shock factor protein 1; assay: inhibition of MG132-induced HSE-luciferase signal, confirmation, cell-based, NIH3T3, luminescence, dose retest (AID 2382); type: functional;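 note: NIH3T3 fibroblasts with HSF1-driven luciferase reporter stressed by proteasome inhibitor MG132; luminescence from HSF1-driven luciferase expression after 8 hours of MG132 stress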
[7] = Luminescence Cell-Based Dose Retest to Confirm Inhibitors of Cancer Stem Cells. [Related pubchem assays (depositor defined):AID2717, AID2721]; type: functional; details: Homo sapiens
INS1 = assay: beta cell apoptosis inhibitors, cytokine rescue, dose response, luminescence, retest (AID 449756); type: functional, cell-based; details: Rattus norvegicus;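 note: cell death triggered by IL-1 beta plus TNF-alpha plus IFN-gamma mixture; protective hits raise ATP signal compared with cytokine alone wells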
[8] = target: T2, Ubiquitin-conjugating enzyme E2 N (Homo sapiens, UniProt P61088); type: functional;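 note: Dose-response confirmation in a TR-FRET assay detecting UBC13-driven polyubiquitin chain formation, inhibition measured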
T2 sequence (P61088 whole entry): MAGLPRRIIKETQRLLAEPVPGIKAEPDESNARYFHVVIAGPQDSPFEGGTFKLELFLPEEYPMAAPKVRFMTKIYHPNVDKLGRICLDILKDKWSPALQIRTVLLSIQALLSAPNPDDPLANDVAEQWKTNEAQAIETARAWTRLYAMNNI

Cytochrome P450 2D6 = Cytochrome P450 2D6 (Homo sapiens, UniProt P10635);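 note: CYP2D6 member of a cytochrome P450 panel assay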
Cytochrome P450 2D6, sequence (P10635 whole entry): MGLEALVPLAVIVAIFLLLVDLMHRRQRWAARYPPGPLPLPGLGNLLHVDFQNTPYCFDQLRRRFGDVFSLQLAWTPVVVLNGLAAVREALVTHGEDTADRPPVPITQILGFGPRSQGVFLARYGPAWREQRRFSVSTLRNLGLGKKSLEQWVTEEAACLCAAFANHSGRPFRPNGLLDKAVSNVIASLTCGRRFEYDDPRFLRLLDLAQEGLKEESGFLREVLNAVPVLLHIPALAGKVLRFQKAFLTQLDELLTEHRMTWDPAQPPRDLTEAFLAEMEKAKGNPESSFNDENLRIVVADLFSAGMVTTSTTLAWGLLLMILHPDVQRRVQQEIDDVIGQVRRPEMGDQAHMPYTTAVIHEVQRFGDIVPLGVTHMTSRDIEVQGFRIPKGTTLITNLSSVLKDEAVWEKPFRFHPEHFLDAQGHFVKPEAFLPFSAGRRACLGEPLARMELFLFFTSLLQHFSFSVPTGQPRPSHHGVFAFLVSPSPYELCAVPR

Protein RecA = target: T3, Protein RecA (Mycobacterium tuberculosis, UniProt P9WHJ3); assay: Fluorescence Cell-Free Homogeneous Dose Retest to Identify Inhibitors of RecA-Intein Splicing Activity. [Related pubchem assays (depositor defined):AID2097, AID2223, AID489010, AID492950]; type: functional
T3 sequence (P9WHJ3 whole entry): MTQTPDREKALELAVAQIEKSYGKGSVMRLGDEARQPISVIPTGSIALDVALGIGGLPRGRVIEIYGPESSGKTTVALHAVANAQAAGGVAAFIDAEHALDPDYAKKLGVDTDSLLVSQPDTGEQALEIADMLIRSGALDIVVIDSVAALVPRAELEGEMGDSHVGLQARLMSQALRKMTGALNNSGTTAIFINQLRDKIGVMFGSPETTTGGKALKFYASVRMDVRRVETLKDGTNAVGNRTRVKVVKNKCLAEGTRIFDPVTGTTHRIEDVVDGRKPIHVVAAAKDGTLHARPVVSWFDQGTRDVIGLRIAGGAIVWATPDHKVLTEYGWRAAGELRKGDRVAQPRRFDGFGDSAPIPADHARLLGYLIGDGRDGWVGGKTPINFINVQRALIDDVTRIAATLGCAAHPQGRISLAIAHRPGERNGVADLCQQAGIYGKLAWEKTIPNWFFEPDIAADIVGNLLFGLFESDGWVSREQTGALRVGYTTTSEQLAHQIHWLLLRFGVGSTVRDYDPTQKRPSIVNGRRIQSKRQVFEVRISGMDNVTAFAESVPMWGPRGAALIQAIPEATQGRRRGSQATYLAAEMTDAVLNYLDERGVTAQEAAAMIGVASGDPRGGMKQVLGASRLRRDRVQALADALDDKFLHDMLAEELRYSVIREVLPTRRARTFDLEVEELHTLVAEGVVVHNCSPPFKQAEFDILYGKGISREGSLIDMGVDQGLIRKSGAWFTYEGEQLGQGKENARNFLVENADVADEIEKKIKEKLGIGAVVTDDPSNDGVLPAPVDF

[9] = target: T4, Replicative DNA helicase DnaB (Mycobacterium tuberculosis, UniProt P9WMR3); assay: DnaB intein splicing inhibitors, dose response, biochemical, cell-free fluorescence (AID 449749); type: functional
T4 sequence (P9WMR3 whole entry): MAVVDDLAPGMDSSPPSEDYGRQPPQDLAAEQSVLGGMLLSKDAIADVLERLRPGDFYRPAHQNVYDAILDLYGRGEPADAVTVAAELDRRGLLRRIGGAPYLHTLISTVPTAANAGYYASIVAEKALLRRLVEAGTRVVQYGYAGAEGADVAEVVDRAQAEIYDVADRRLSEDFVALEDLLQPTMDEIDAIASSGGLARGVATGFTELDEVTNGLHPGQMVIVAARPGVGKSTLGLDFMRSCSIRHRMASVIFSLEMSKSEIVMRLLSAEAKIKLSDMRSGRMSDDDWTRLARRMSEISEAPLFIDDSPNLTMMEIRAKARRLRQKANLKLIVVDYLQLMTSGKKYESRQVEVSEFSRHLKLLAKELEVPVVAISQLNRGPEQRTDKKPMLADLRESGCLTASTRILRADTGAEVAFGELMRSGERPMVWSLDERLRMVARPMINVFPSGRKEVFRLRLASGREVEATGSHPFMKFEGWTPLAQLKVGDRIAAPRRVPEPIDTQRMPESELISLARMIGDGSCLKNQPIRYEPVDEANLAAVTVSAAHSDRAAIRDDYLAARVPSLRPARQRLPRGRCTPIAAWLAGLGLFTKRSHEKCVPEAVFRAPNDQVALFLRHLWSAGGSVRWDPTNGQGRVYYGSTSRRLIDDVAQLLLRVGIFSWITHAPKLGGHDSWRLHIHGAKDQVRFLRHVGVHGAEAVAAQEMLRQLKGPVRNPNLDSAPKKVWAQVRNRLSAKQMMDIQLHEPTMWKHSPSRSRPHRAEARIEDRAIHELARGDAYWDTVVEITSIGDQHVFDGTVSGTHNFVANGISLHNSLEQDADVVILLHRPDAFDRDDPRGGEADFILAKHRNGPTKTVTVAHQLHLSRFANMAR

[10] = inhibitors of intracellular T. cruzi replication, confirmation, NIH3T3 host cells, beta-gal luminescence (AID 2044); type: functional, cell-based;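 note: intracellular parasites grown in NIH/3T3 mouse fibroblasts as host cells; luminescent beta-galactosidase reporter signal from transgenic T. cruzi replicating inside host cells; inhibitors lower the luminescence signal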
[11] = cytotoxicity toward NIH3T3 fibroblasts, dose response, counter-screen, cell-based, ATP luminescence, mouse fibroblasts (AID 2010); type: functional;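 note: cells exposed to compound for about 90 hours before reading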
[12] = inhibitors of firefly luciferase expression or activity, dose response, H4 neuroglioma cells, luminescence (AID 1990); type: functional, cell-based
[13] = Luminescence Cell-Based Dose Response HTS to Identify Inhibitors of 5'UTR Stem-Loop Driven Prion Protein mRNA Translation in H4 Neuroglioblastoma Cells. [Related pubchem assays: 1827 (Project Summary), 1813 (Primary HTS)]; type: functional
Cytochrome P450 3A4 = Cytochrome P450 3A4 (Homo sapiens, UniProt P08684);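 note: CYP3A4 tested as one member of a cytochrome P450 panel screen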
Cytochrome P450 3A4, sequence (P08684 whole entry): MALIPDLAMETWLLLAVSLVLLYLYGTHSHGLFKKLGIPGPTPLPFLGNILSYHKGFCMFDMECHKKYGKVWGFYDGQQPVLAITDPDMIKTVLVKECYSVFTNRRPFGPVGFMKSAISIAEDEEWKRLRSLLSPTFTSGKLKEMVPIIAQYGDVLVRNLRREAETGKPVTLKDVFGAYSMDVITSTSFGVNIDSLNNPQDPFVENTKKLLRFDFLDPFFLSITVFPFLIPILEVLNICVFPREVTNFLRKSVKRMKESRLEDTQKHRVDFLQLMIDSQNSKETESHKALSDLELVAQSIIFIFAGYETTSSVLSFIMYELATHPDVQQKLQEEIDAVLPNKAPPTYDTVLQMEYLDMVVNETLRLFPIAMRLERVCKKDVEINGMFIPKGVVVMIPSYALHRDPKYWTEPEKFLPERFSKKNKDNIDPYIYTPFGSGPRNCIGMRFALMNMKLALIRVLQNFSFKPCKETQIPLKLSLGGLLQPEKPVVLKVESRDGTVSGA

[14] = HEp-2 cell cytotoxicity, dose response, cytotoxicity control for RSV inhibitor project, HTS (AID 2410); type: functional; details: human respiratory syncytial virus
[15] = HepG2 cell cytotoxicity, dose response, cytotoxicity control for Shn3 inhibitor project, CellTiter-Glo, cherry-picked (AID 624134); type: functional, cell-based
[16] = control 3'UTR Renilla luciferase suppression, dose response, counter-screen for Shn3 inhibitor project, cell-based, Clone20-Shn3RL, cherry-picked (AID 624133); type: functional
[17] = Shn3 3'UTR reporter inhibitors, dose response, cell-based, Clone20 osteoblasts, firefly luciferase, cherry-picked (AID 624132); type: functional;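 note: firefly luciferase luminescence from reporter carrying the Shn3 3'UTR in osteoblasts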

SMILES: CNC(=O)C1CC(=O)N(c2ccc(OCC(=O)N3CCCC3)cc2)C1 (stereo unspecified)
- EC50 [1]: > 260 µM (inactive)
- EC50 (cells [2]): > 350 µM (not active)
- EC50 (cells [3]): > 350 µM (not active)

SMILES: Cc1ccc(S(=O)(=O)c2c(N)n(Cc3ccco3)c3nc4ccccc4nc23)cc1C
- EC50 [4]: 18.4 µM (active)
- EC50 [5]: 20.1 µM (active)

SMILES: CCOC(=O)c1cc2sccc2n1CC(=O)Nc1ccc(OC)cc1
- EC50 (cells [2]): > 350 µM (not active)
- EC50 (cells [3]): > 350 µM (not active)
- EC50 [6]: > 195 µM (not active)

SMILES: Cc1ccc(C)c(NC(S)=NC(NC(=O)Cc2cccc3ccccc23)C(Cl)(Cl)Cl)c1 (stereo unspecified)
- AC50 [7]: 0.861 µM (active)
- EC50 [4]: 13.9 µM (active)
- EC50 [5]: 15.5 µM (active)
- AC50 (INS1): 4.16 µM (active)

SMILES: O=[N+]([O-])c1c(-c2cn[nH]c2)n[nH]c1-c1cn[nH]c1
- IC50 [8]: > 20 µM (inactive)

SMILES: O=C(c1ccco1)N1CCC[C@@]2(CCN(c3ncccn3)C2)C1
- AC50 (Cytochrome P450 2D6): 25.1 µM (inconclusive)

SMILES: C=C(C)CN=C(S)N=Nc1c(O)[nH]c2ccc([N+](=O)[O-])cc12
- EC50 (Protein RecA): 151 µM (inconclusive)
- AC50 [9]: 52.8 µM (active)
- IC50 [8]: > 20 µM (inactive)

SMILES: CC(=O)Nc1ccc(S(=O)(=O)N2CCN(CC(O)COc3ccc4ccccc4c3)CC2)cc1 (stereo unspecified)
- IC50 [8]: > 20 µM (inactive)

SMILES: CCOC(=O)c1c(NC(=O)CSc2nc3cc(Cl)ccc3c(=O)n2Cc2ccco2)sc(C(=O)N(C)C)c1C
- EC50 [10]: 0.999 µM (active)
- EC50 [1]: 7.33 µM (active)
- EC50 [4]: 6.8 µM (active)
- EC50 [5]: 12.2 µM (active)
- EC50 [11]: > 60 µM (inconclusive)

SMILES: CCC(CC)NC(=O)c1cc2c(C)nn(Cc3ccccc3Cl)c2s1
- EC50 [12]: 11.7 µM (active)
- EC50 [13]: > 120 µM (not active)

SMILES: COc1ccc(CNc2ccnc(-c3ccccc3Cl)n2)c(OC)c1
- AC50 (Cytochrome P450 2D6): 39.8 µM (inconclusive)

SMILES: Cc1cccc(NC(S)=Nc2ccc(Br)cc2)c1
- AC50 (Cytochrome P450 2D6): 8.91 µM (inconclusive)
- AC50 (Cytochrome P450 3A4): 25.1 µM (inconclusive)

SMILES: CCCn1c(SCC(=O)N2CCc3ccccc3C2)nc2c1c(=O)n(C)c(=O)n2C
- EC50 (cells [2]): > 350 µM (not active)
- EC50 (cells [3]): > 350 µM (not active)

SMILES: CC(C)(C)NC(=O)CN(C(=O)Cn1nnc(-c2ccc(Cl)cc2)n1)C1CCN(Cc2ccccc2)CC1
- EC50 [4]: 41.4 µM (active)
- EC50 [5]: 37.9 µM (active)
- CC50 [14]: 25.7 µM (active)

SMILES: Cc1ccc2nnn(Cc3cccc(C(C)(C)C)c3O)c2c1
- EC50 [1]: > 260 µM (inactive)
- AC50 [15]: 59.3 µM (active)
- AC50 [16]: 7.31 µM (active)
- AC50 [17]: 5.44 µM (active)

SMILES: CN(CC(=O)Nc1ccc(S(=O)(=O)N2CCCC2)cc1)CC(=O)Nc1cccc(F)c1
- EC50 (cells [2]): > 350 µM (not active)
- EC50 (cells [3]): > 350 µM (not active)

SMILES: O=C(NNC(=O)C(O)(c1ccccc1)c1ccccc1)C1CC1
- EC50 (cells [2]): > 350 µM (not active)
- EC50 (cells [3]): > 350 µM (not active)

SMILES: O=C(NCc1ccc2c(c1)OCO2)c1nc(S(=O)(=O)Cc2ccccc2F)ncc1Cl
- EC50 (Protein RecA): 3.25 µM (active)
- AC50 [7]: 5.02 µM (active)
- AC50 [15]: 31.1 µM (active)
- AC50 [16]: 5.92 µM (active)
- AC50 [9]: 2.6 µM (active)
- AC50 [17]: 5.19 µM (active)

SMILES: O=C(Nc1ccc(Br)cc1F)c1ccc2c(c1)OCCO2
- EC50 [13]: 10.8 µM (active)

SMILES: COc1ccc(CN(C)CC(=O)Nc2ccc(SC(F)F)cc2)cc1OC
- EC50 (cells [2]): > 350 µM (not active)
- EC50 (cells [3]): > 350 µM (not active)

SMILES: O=C(NC12CC3CC(CC(C3)C1)C2)C12CC3CC(C1)CC(n1cnc(Cl)n1)(C3)C2
- AC50 (Cytochrome P450 2D6): 11.2 µM (inconclusive)
- AC50 (Cytochrome P450 3A4): 14.1 µM (inconclusive)

SMILES: CN(CC(=O)Nc1cccc(S(=O)(=O)N2CCOCC2)c1)CC(=O)Nc1ccc(Cl)c(C(F)(F)F)c1
- AC50 [15]: 56.7 µM (active)
- AC50 [16]: 6.89 µM (active)
- AC50 [17]: 2.4 µM (active)

SMILES: COc1ccc([C@H]2CC(=O)C=C(c3ccc4c(c3)OCO4)C2)cc1OC
- AC50 [16]: 28.9 µM (active)
- AC50 [17]: 58.3 µM (active)

SMILES: COc1ccc(/N=c2\oc3ccc(OC)cc3cc2-c2nc3ccccc3[nH]2)cc1
- EC50 [4]: 3.77 µM (active)
- EC50 [5]: 13 µM (active)

SMILES: Cc1cc(C)n(-c2nnc(C)n2/N=C/c2ccccc2OCc2ccccc2Cl)n1
- AC50 (Cytochrome P450 2D6): 28.2 µM (inconclusive)

SMILES: CN1CCCC(CC2c3ccccc3Sc3ccccc32)C1 (stereo unspecified) [METHIXENE HYDROCHLORIDE]
- IC50 [8]: > 20 µM (inactive)
